Source: US20260138958A1, “SUBSTITUTED N-PHENYLURACILS AND SALTS THEREOF, AND USE THEREOF AS HERBICIDAL ACTIVE SUBSTANCES” (Bayer Aktiengesellschaft, priority 2022, published 2026)

Assays:
Type in all cases: in vivo
[1] = system: Digitaria sanguinalis (DIGSA); experiment: Post-emergence herbicidal action, greenhouse pot test
Experimental: (§1) Seeds of monocotyledonous and dicotyledonous weeds and crop plants were placed in sandy loam in plastic or wood-fibre pots, covered with soil and cultivated in a greenhouse under controlled growth conditions. 2 to 3 weeks after sowing, the test plants were treated at the one-leaf stage. The compounds of the invention, formulated in the form of wettable powders (WP) or as emulsion concentrates (EC), were then sprayed onto the green parts of the plants as aqueous suspension or emulsion with addition of 0.5% additive at a water application rate of 600 l/ha (converted). After the test plants had been kept in the greenhouse under optimum growth conditions for about 3 weeks, the activity of the preparations was rated visually in comparison to untreated controls. For example, 100% activity=the plants have died, 0% activity=like control plants.

Setaria viridis (SETVI) = experiment: as above
Experimental: as §1

[2] = system: Pharbitis purpurea (PHBPU); experiment: as above
Experimental: as §1

Bassia scoparia (KCHSC) = experiment: as above
Experimental: as §1

Viola tricolor (VIOTR) = experiment: as above
Experimental: as §1

[3] = system: Polygonum convolvulus (POLCO); experiment: as above; conditions: 20 g/ha
Experimental: as §1

[4] = system: Echinochloa crus-galli (ECHCG); experiment: as above
Experimental: as §1

Veronica persica (VERPE) = experiment: as above
Experimental: as §1

[5] = system: Amaranthus retroflexus (AMARE); experiment: as above
Experimental: as §1

[6] = system: Tripleurospermum inodorum (MATIN); experiment: as above; conditions: 20 g/ha
Experimental: as §1

[7] = system: Abutilon theophrasti (ABUTH); experiment: as above
Experimental: as §1

[8] = system: Triticum aestivum (TRZAS); experiment: Post-emergence crop plant compatibility, greenhouse pot test; conditions: crop plant, post-emergence, 1.25 g/ha
Experimental: as §1
The observed effects on selected crop plants are reported here in comparison to the untreated controls (values in %).

In the case of `Cn1c(C(F)(F)F)cc(=O)n(-c2cc(Oc3cc(F)ccc3OCC(=O)OCC3CC3)c(Br)cc2F)c1=O` [I.24-1], the “Post-emergence effect at 1.25 g/ha against DIGSA in %” value ([1]; 1.25 g/ha) is reported as 80%, the “Post-emergence effect at 5 g/ha against DIGSA in %” value ([1]; 5 g/ha) is reported as 100% and the “Post-emergence effect at 20 g/ha against DIGSA in %” value ([1]; 20 g/ha) is reported as 100%. For the same molecule, the “Post-emergence effect at 1.25 g/ha against SETVI in %” value (Setaria viridis (SETVI); 1.25 g/ha) was 90%, the “Post-emergence effect at 5 g/ha against SETVI in %” value (Setaria viridis (SETVI); 5 g/ha) was 100% and the “Post-emergence effect at 20 g/ha against SETVI in %” value (Setaria viridis (SETVI); 20 g/ha) was 100%. For the same molecule, the “Post-emergence effect at 1.25 g/ha against PHBPU in %” value ([2]; 1.25 g/ha) was 80%, the “Post-emergence effect at 5 g/ha against PHBPU in %” value ([2]; 5 g/ha) was 100% and the “Post-emergence effect at 20 g/ha against PHBPU in %” value ([2]; 20 g/ha) was 100%. The “Post-emergence effect at 1.25 g/ha against KCHSC in %” value (Bassia scoparia (KCHSC); 1.25 g/ha) was 100%, the “Post-emergence effect at 5 g/ha against KCHSC in %” value (Bassia scoparia (KCHSC); 5 g/ha) was 100% and the “Post-emergence effect at 20 g/ha against KCHSC in %” value (Bassia scoparia (KCHSC); 20 g/ha) was 100%. The “Post-emergence effect at 5 g/ha against VIOTR in %” value (Viola tricolor (VIOTR); 5 g/ha) was 100%, the “Post-emergence effect at 20 g/ha against VIOTR in %” value (Viola tricolor (VIOTR); 20 g/ha) was 100% and the “Post-emergence effect at 20 g/ha against POLCO in %” value [3] was 100%. For the same molecule, the “Post-emergence effect at 5 g/ha against ECHCG in %” value ([4]; 5 g/ha) was 80%, the “Post-emergence effect at 20 g/ha against ECHCG in %” value ([4]; 20 g/ha) was 100% and the “Post-emergence effect at 5 g/ha against VERPE in %” value (Veronica persica (VERPE); 5 g/ha) was 100%. The “Post-emergence effect at 20 g/ha against VERPE in %” value (Veronica persica (VERPE); 20 g/ha) was 100%, the “Post-emergence effect at 1.25 g/ha against AMARE in %” value ([5]; 1.25 g/ha) was 100% and the “Post-emergence effect at 5 g/ha against AMARE in %” value ([5]; 5 g/ha) was 100%. The “Post-emergence effect at 20 g/ha against AMARE in %” value ([5]; 20 g/ha) was 100%, the “Post-emergence effect at 20 g/ha against MATIN in %” value [6] was 80% and the “Post-emergence effect at 1.25 g/ha against ABUTH in %” value ([7]; 1.25 g/ha) was 100%. The “Post-emergence effect at 5 g/ha against ABUTH in %” value ([7]; 5 g/ha) was 100%, the “Post-emergence effect at 20 g/ha against ABUTH in %” value ([7]; 20 g/ha) was 100% and the “Post-emergence effect at 1.25 g/ha against TRZAS in %” value [8] was 20%.
With `Cn1c(C(F)(F)F)cc(=O)n(-c2cc(Oc3ccccc3OCC(=O)OC3CCCCC3)c(Cl)cc2F)c1=O` [a-29, reference compound] the “VERPE (efficacy in %)” value (Veronica persica (VERPE); Table B4 comparison, application rate 1.25 g/ha) was 90%.
For `Cn1c(C(F)(F)F)cc(=O)n(-c2cc(Oc3ccccc3OCC(=O)OC3CCCCCC3)c(Cl)cc2F)c1=O` [reference compound], the “ECHCG (efficacy in %)” value ([4]; Table B5 comparison, application rate 1.25 g/ha) was 80%.
